This assay deals with L1210 leukemia ip in BDF1 mice, survival T/C. Briefly: NCI In Vivo Anticancer Drug Screen. Data for tumor model L1210 Leukemia (intraperitoneal) in B6D2F1 (BDF1) mice. To be noted: higher = longer survival. In short, it runs like this: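 Read-out is survival time, reported as the treated-group measurement over the vehicle-control measurement.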

Inconclusive results and toxic doses are left out.

As for `COc1ccc(C(=O)Nc2ccccc2)cc1[N+](=O)[O-]`, the T/C is 96 % of control (endpoint: mean survival time, dose: 100.0 mg/kg/injection, schedule: Q01DX009 (ip), vehicle: Klucel (hydroxypropylcellulose) (HPC)); 101 % of control (endpoint: mean survival time, dose: 100.0 mg/kg/injection, schedule: Q01DX009 (ip), vehicle: saline with Tween-80); 101 % of control (endpoint: mean survival time, dose: 100.0 mg/kg/injection, schedule: Q04DX003 (ip), vehicle: saline with Tween-80); 98 % of control (endpoint: mean survival time, dose: 200.0 mg/kg/injection, schedule: Q01DX009 (ip), vehicle: Klucel (hydroxypropylcellulose) (HPC)); 94 % of control (endpoint: mean survival time, dose: 200.0 mg/kg/injection, schedule: Q01DX009 (ip), vehicle: saline with Tween-80); 97 % of control (endpoint: mean survival time, dose: 200.0 mg/kg/injection, schedule: Q04DX003 (ip), vehicle: saline with Tween-80). Besides, the T/C runs as follows: (endpoint: mean survival time, dose: 400.0 mg/kg/injection, schedule: Q01DX009 (ip), vehicle: Klucel (hydroxypropylcellulose) (HPC)) 98 % of control; (endpoint: mean survival time, dose: 400.0 mg/kg/injection, schedule: Q01DX009 (ip), vehicle: saline with Tween-80) 86 % of control; (endpoint: mean survival time, dose: 400.0 mg/kg/injection, schedule: Q04DX003 (ip), vehicle: saline with Tween-80) 101 % of control.
Consider `BrC1(Br)C2CC3C(CC21)C3(Br)Br` (centres undefined), for which the T/C (endpoint: mean survival time, dose: 100.0 mg/kg/injection, schedule: Q01DX001 (ip), vehicle: saline sonified) is 98 % of control; the T/C (endpoint: mean survival time, dose: 200.0 mg/kg/injection, schedule: Q01DX001 (ip), vehicle: saline sonified) was 96 % of control; the T/C (endpoint: mean survival time, dose: 400.0 mg/kg/injection, schedule: Q01DX001 (ip), vehicle: saline sonified) is 98 % of control.
Take `Nc1nc(-c2ccccc2)c(CCCO)c(=O)[nH]1`: the T/C was 102 % of control (endpoint: mean survival time, dose: 100.0 mg/kg/injection, schedule: Q01DX001 (ip), vehicle: Klucel (hydroxypropylcellulose) (HPC)); 102 % of control (endpoint: mean survival time, dose: 200.0 mg/kg/injection, schedule: Q01DX001 (ip), vehicle: Klucel (hydroxypropylcellulose) (HPC)); 98 % of control (endpoint: mean survival time, dose: 400.0 mg/kg/injection, schedule: Q01DX001 (ip), vehicle: Klucel (hydroxypropylcellulose) (HPC)).
On to `O=C1c2ccccc2C(=O)c2c(NCCNCCO)ccc(NCCNCCO)c21`, for which the T/C is 204 % of control (endpoint: mean survival time, dose: 2.0 mg/kg/injection, schedule: Q01DX009 (ip), vehicle: Klucel (hydroxypropylcellulose) (HPC)); 162 % of control (endpoint: mean survival time, dose: 2.0 mg/kg/injection, schedule: Q01DX009 (ip), vehicle: saline with Tween-80); 196 % of control (endpoint: mean survival time, dose: 2.0 mg/kg/injection, schedule: Q01DX009 (ip), vehicle: water); 306 % of control (endpoint: mean survival time, dose: 4.0 mg/kg/injection, schedule: Q01DX009 (ip), vehicle: Klucel (hydroxypropylcellulose) (HPC)); 153 % of control (endpoint: mean survival time, dose: 4.0 mg/kg/injection, schedule: Q01DX009 (ip), vehicle: saline with Tween-80); 159 % of control (endpoint: mean survival time, dose: 4.0 mg/kg/injection, schedule: Q01DX009 (ip), vehicle: water). Besides, the T/C was 491 % of control (endpoint: mean survival time, dose: 8.0 mg/kg/injection, schedule: Q01DX009 (ip), vehicle: Klucel (hydroxypropylcellulose) (HPC)); 220 % of control (endpoint: mean survival time, dose: 8.0 mg/kg/injection, schedule: Q01DX009 (ip), vehicle: saline with Tween-80); 498 % of control (endpoint: mean survival time, dose: 8.0 mg/kg/injection, schedule: Q01DX009 (ip), vehicle: water); 347 % of control (endpoint: mean survival time, dose: 16.0 mg/kg/injection, schedule: Q01DX009 (ip), vehicle: Klucel (hydroxypropylcellulose) (HPC)); 253 % of control (endpoint: mean survival time, dose: 16.0 mg/kg/injection, schedule: Q01DX009 (ip), vehicle: saline with Tween-80); 396 % of control (endpoint: mean survival time, dose: 16.0 mg/kg/injection, schedule: Q01DX009 (ip), vehicle: water). Also, the T/C runs as follows: (endpoint: mean survival time, dose: 32.0 mg/kg/injection, schedule: Q01DX009 (ip), vehicle: Klucel (hydroxypropylcellulose) (HPC)) 118 % of control; (endpoint: mean survival time, dose: 32.0 mg/kg/injection, schedule: Q01DX009 (ip), vehicle: saline with Tween-80) 89 % of control; (endpoint: mean survival time, dose: 32.0 mg/kg/injection, schedule: Q01DX009 (ip), vehicle: water) 93 % of control; (endpoint: median survival time, dose: 8.0 mg/kg/injection, schedule: Q01DX005 (oral), vehicle: Klucel (hydroxypropylcellulose) (HPC)) 90 % of control; (endpoint: median survival time, dose: 8.0 mg/kg/injection, schedule: Q01DX005 (oral), vehicle: water) 101 % of control; (endpoint: median survival time, dose: 16.0 mg/kg/injection, schedule: Q01DX005 (oral), vehicle: Klucel (hydroxypropylcellulose) (HPC)) 98 % of control. Besides, the T/C is 101 % of control (endpoint: median survival time, dose: 16.0 mg/kg/injection, schedule: Q01DX005 (oral), vehicle: water); 94 % of control (endpoint: median survival time, dose: 32.0 mg/kg/injection, schedule: Q01DX005 (oral), vehicle: Klucel (hydroxypropylcellulose) (HPC)); 101 % of control (endpoint: median survival time, dose: 32.0 mg/kg/injection, schedule: Q01DX005 (oral), vehicle: water); 100 % of control (endpoint: median survival time, dose: 64.0 mg/kg/injection, schedule: Q01DX005 (oral), vehicle: Klucel (hydroxypropylcellulose) (HPC)); 97 % of control (endpoint: median survival time, dose: 64.0 mg/kg/injection, schedule: Q01DX005 (oral), vehicle: water); 94 % of control (endpoint: median survival time, dose: 128.0 mg/kg/injection, schedule: Q01DX005 (oral), vehicle: Klucel (hydroxypropylcellulose) (HPC)). In addition, the T/C was 100 % of control (endpoint: median survival time, dose: 128.0 mg/kg/injection, schedule: Q01DX005 (oral), vehicle: water); 98 % of control (endpoint: median survival time, dose: 256.0 mg/kg/injection, schedule: Q01DX005 (oral), vehicle: Klucel (hydroxypropylcellulose) (HPC)); 102 % of control (endpoint: median survival time, dose: 256.0 mg/kg/injection, schedule: Q01DX005 (oral), vehicle: water); 103 % of control (endpoint: median survival time, dose: 512.0 mg/kg/injection, schedule: Q01DX005 (oral), vehicle: Klucel (hydroxypropylcellulose) (HPC)); 106 % of control (endpoint: median survival time, dose: 512.0 mg/kg/injection, schedule: Q01DX005 (oral), vehicle: water).
`Clc1ncn[nH]1`: the T/C (endpoint: mean survival time, dose: 100.0 mg/kg/injection, schedule: Q04DX003 (ip), vehicle: saline sonified) was 101 % of control; the T/C (endpoint: mean survival time, dose: 200.0 mg/kg/injection, schedule: Q04DX003 (ip), vehicle: saline sonified) is 106 % of control; the T/C (endpoint: mean survival time, dose: 400.0 mg/kg/injection, schedule: Q04DX003 (ip), vehicle: saline sonified) was 100 % of control.
Take `O=C(O)c1cccc(S(=O)(=O)O)c1`: the T/C is 105 % of control (endpoint: mean survival time, dose: 100.0 mg/kg/injection, schedule: Q01DX001 (ip), vehicle: saline); 98 % of control (endpoint: mean survival time, dose: 200.0 mg/kg/injection, schedule: Q01DX001 (ip), vehicle: saline); 102 % of control (endpoint: mean survival time, dose: 400.0 mg/kg/injection, schedule: Q01DX001 (ip), vehicle: saline).
With `CCC1(C)CC(=O)N(C/C=C(\C)CCC(=O)O)C(=O)C1`, the T/C runs as follows: (endpoint: mean survival time, dose: 100.0 mg/kg/injection, schedule: Q01DX009 (ip), vehicle: other) 103 % of control; (endpoint: mean survival time, dose: 100.0 mg/kg/injection, schedule: Q04DX003 (ip), vehicle: other) 89 % of control; (endpoint: mean survival time, dose: 200.0 mg/kg/injection, schedule: Q01DX009 (ip), vehicle: other) 101 % of control; (endpoint: mean survival time, dose: 200.0 mg/kg/injection, schedule: Q04DX003 (ip), vehicle: other) 100 % of control; (endpoint: mean survival time, dose: 400.0 mg/kg/injection, schedule: Q01DX009 (ip), vehicle: other) 93 % of control; (endpoint: mean survival time, dose: 400.0 mg/kg/injection, schedule: Q04DX003 (ip), vehicle: other) 96 % of control.
As to `COc1ccccc1-n1c(O)c(N=Nc2ccccc2C)c(=O)n(-c2ccccc2OC)c1=S`, the T/C is 96 % of control (endpoint: mean survival time, dose: 100.0 mg/kg/injection, schedule: Q04DX003 (ip), vehicle: Klucel (hydroxypropylcellulose) (HPC)); 94 % of control (endpoint: mean survival time, dose: 200.0 mg/kg/injection, schedule: Q04DX003 (ip), vehicle: Klucel (hydroxypropylcellulose) (HPC)); 100 % of control (endpoint: mean survival time, dose: 400.0 mg/kg/injection, schedule: Q04DX003 (ip), vehicle: Klucel (hydroxypropylcellulose) (HPC)).
As to `CC(=O)NCCc1ccc(NCc2cnc3nc(N)nc(N)c3n2)cc1`, the T/C is 98 % of control (endpoint: mean survival time, dose: 20.0 mg/kg/injection, schedule: Q01DX009 (ip), vehicle: Klucel (hydroxypropylcellulose) (HPC)); 96 % of control (endpoint: mean survival time, dose: 40.0 mg/kg/injection, schedule: Q01DX009 (ip), vehicle: Klucel (hydroxypropylcellulose) (HPC)); 98 % of control (endpoint: mean survival time, dose: 80.0 mg/kg/injection, schedule: Q01DX009 (ip), vehicle: Klucel (hydroxypropylcellulose) (HPC)).
As to `CC1CN1c1nc(N2CC2C)nc(N2CC2C)n1` (centres undefined), the T/C (endpoint: mean survival time, dose: 1.56 mg/kg/injection, schedule: Q01DX009 (ip), vehicle: saline) is 97 % of control; the T/C (endpoint: mean survival time, dose: 3.13 mg/kg/injection, schedule: Q01DX009 (ip), vehicle: saline) is 95 % of control; the T/C (endpoint: mean survival time, dose: 5.0 mg/kg/injection, schedule: Q01DX001 (ip), vehicle: saline) is 100 % of control; the T/C (endpoint: mean survival time, dose: 6.25 mg/kg/injection, schedule: Q01DX009 (ip), vehicle: saline) is 92 % of control; the T/C (endpoint: mean survival time, dose: 10.0 mg/kg/injection, schedule: Q01DX001 (ip), vehicle: saline) is 109 % of control; the T/C (endpoint: mean survival time, dose: 12.5 mg/kg/injection, schedule: Q01DX009 (ip), vehicle: saline) is 87 % of control. The T/C (endpoint: mean survival time, dose: 20.0 mg/kg/injection, schedule: Q01DX001 (ip), vehicle: saline) was 109 % of control.

The values above are taken from PubChem BioAssay AID248 (DTP/NCI, 2004).
